Patent US5726159A, “Antithrombotic agents” (Eli Lilly and Company, priority 1995, dated 1998)
Where a name gives a salt, the structure may show the parent alone.

How the values were obtained:
Format in all cases: biochemical
Settings in all cases: concentration required to double the clotting time
Human plasma [1] = assay: Human plasma anticoagulation, thrombin time (TT)
Method: (§1) Dog plasma and rat plasma is obtained from conscious mixed-breed hounds (either sex, Hazelton-LRE, Kalamazoo, Mich., U.S.A.) or from anesthetized male Sprague-Dawley rats (Harlan Sprague-Dawley, Inc., Indianapolis, Ind., U.S.A.) by venipuncture into 3.8 percent citrate. Fibrinogen is prepared from in-date ACD human blood as the fraction I-2 according to previous procedures and specifications. […] Human fibrinogen is also purchased as 98 percent pure/plasmin free from American Diagnostica, Greenwich, Conn. Coagulation reagents ACTIN, Thromboplastin, and Human plasma are from Baxter Healthcare Corp., Dade Division, Miami, Fla. Bovine thrombin from Parke-Davis ([…], Mich.) is used for coagulation assays in plasma.
(§2) Coagulation assay procedures are as previously described. […] A CoAScreener coagulation instrument (American LABor, Inc.) is used for all coagulation assay measurements. The prothrombin time (PT) is measured by adding 0.05 mL saline and 0.05 mL Thromboplastin-C reagent to 0.05 mL test plasma. The activated partial thromboplastin time (APTT) is measured by incubation of 0.05 mL test plasma with 0.05 mL Actin reagent for 120 seconds followed by 0.05 mL CaCl2 (0.02M). The thrombin time (TT) is measured by adding 0.05 mL saline and 0.05 mL thrombin (10 NIH units/mL) to 0.05 mL test plasma. The compounds of Formula I are added to human or animal plasma over a wide range of concentrations to determine prolongation effects on the APTT, PT, and TT assays. Linear extrapolations are performed to estimate the concentrations required to double the clotting time for each assay.

Human plasma [2] = assay: Human plasma anticoagulation, prothrombin time (PT)
Method: as §1, §2

Human plasma [3] = assay: Human plasma anticoagulation, activated partial thromboplastin time (APTT)
Method: as §1, §2

## CCS(=O)(=O)N[C@H](Cc1ccccc1)C(=O)N1CCC[C@H]1C(=O)NCc1cccc(NC(=N)N)c1 [Example 36, EtSO2 -D-Phe-Pro-m-NHCH2 C6 H4 NHC(NH)NH2.HCl]
Human plasma [1]
  2x Clotting time TT: 7,700 ng/mL
Human plasma [2]
  2x Clotting time PT: > 91,000 ng/mL
Human plasma [3]
  2x Clotting time APTT: > 91,000 ng/mL

## O=C(O)CN[C@H](CC1CCCCC1)C(=O)N1CCC[C@H]1C(=O)NCCC1=CCNCC1 [Example 59, HO2 CCH2 -D-Cha-Pro-4-NHCH2 CH2 -3,4-dehydro-piperidine.HCl]
Human plasma [1]
  2x Clotting time TT: 420 ng/mL
Human plasma [2]
  2x Clotting time PT: 7,000 ng/mL
Human plasma [3]
  2x Clotting time APTT: 5,500 ng/mL

## N=C(N)Nc1ccc(CNC(=O)[C@@H]2CCCN2C(=O)[C@@H]2NCC[C@@H]3CCCC[C@@H]32)cc1 [Example 38, D-1-Piq-Pro-p-NHCH2 C6 H4 NHC(NH)NH2.2HCl]
Human plasma [1]
  2x Clotting time TT: 540 ng/mL
Human plasma [2]
  2x Clotting time PT: 11,100 ng/mL
Human plasma [3]
  2x Clotting time APTT: 6,100 ng/mL

## O=C(O)CN[C@H](CC1CCCCC1)C(=O)N1CCC[C@H]1C(=O)NCCCC1=CCNCC1 [Example 60, HO2 CCH2 -D-Cha-Pro-4-NHCH2 CH2 CH2 -3,4-dehydro-piperidine.HCl]
Human plasma [1]
  2x Clotting time TT: 3,200 ng/mL
Human plasma [2]
  2x Clotting time PT: 77,700 ng/mL
Human plasma [3]
  2x Clotting time APTT: 22,200 ng/mL

## N=C(N)c1ccc(CNC(=O)[C@@H]2CCCN2C(=O)[C@@H](CC2CCCCC2)NCC(=O)O)nc1 [Example 66, HO2 CCH2 -D-Cha-Pro-2-NHCH2 -5-amidinopyridine.HCl]
Human plasma [1]
  2x Clotting time TT: 7.9 ng/mL
Human plasma [2]
  2x Clotting time PT: 270 ng/mL
Human plasma [3]
  2x Clotting time APTT: 180 ng/mL

## N=C(N)Nc1ccc(CCNC(=O)[C@@H]2CCCN2C(=O)[C@@H]2NCC[C@@H]3CCCC[C@@H]32)cc1 [Example 39, D-1-Piq-Pro-p-NHCH2 CH2 C6 H4 NHC(NH)NH2.2HCl]
Human plasma [1]
  2x Clotting time TT: 5,300 ng/mL
Human plasma [2]
  2x Clotting time PT: 78,600 ng/mL
Human plasma [3]
  2x Clotting time APTT: 69,200 ng/mL

## NCC1CCC(CNC(=O)[C@@H]2CCCN2C(=O)[C@@H](CC2CCCCC2)NCC(=O)O)CC1 (stereo partly drawn) [Example 79, HO2 CCH2 -D-Cha-Pro-4-NHCH2 C6 H10 CH2 NH2.HCl]
Human plasma [1]
  2x Clotting time TT: 140 ng/mL
Human plasma [2]
  2x Clotting time PT: 2,400 ng/mL
Human plasma [3]
  2x Clotting time APTT: 1,700 ng/mL

## CS(=O)(=O)CC(=O)N[C@H](CC1CCCCC1)C(=O)N1CCC[C@H]1C(=O)NCc1ccc(C(=N)N)cc1 [Example 92, MeSO2 CH2 CO-D-Cha-Pro-p-NHCH2 C6 H4 C(NH)NH2.HCl]
Human plasma [1]
  2x Clotting time TT: 8.9 ng/mL
Human plasma [2]
  2x Clotting time PT: 340 ng/mL
Human plasma [3]
  2x Clotting time APTT: 210 ng/mL

## CCS(=O)(=O)N[C@H](CC1CCCCC1)C(=O)N1CCC[C@H]1C(=O)NCc1ccc(CN)cc1 [Example 81, EtSO2 -D-Cha-Pro-4-NHCH2 C6 H4 CH2 NH2.HCl]
Human plasma [1]
  2x Clotting time TT: 110 ng/mL
Human plasma [2]
  2x Clotting time PT: 2,700 ng/mL
Human plasma [3]
  2x Clotting time APTT: 1,500 ng/mL

## Nc1ccc(CCNC(=O)[C@@H]2CCCN2C(=O)[C@H](N)Cc2ccccc2)cc1 [Example 14, D-Phe-Pro-p-NHCH2 CH2 C6 H4 NH2.HCl]
Human plasma [1]
  2x Clotting time TT: 21,000 ng/mL

## N=C(N)N1CCC(CNC(=O)[C@@H]2CCCN2C(=O)[C@@H](CC2CCCCC2)NCC(=O)O)CC1 [Example 56, HO2 CCH2 -D-Cha-Pro-4-NHCH2 -1-amidinopiperidine.HCl]
Human plasma [1]
  2x Clotting time TT: 5 ng/mL
Human plasma [2]
  2x Clotting time PT: 200 ng/mL
Human plasma [3]
  2x Clotting time APTT: 160 ng/mL

## N=C(N)NCc1ccc(CNC(=O)[C@@H]2CCCN2C(=O)[C@H](N)Cc2ccccc2)cc1 [Example 9, D-Phe-Pro-p-NHCH2 -C6 H4 CH2 NHC(NH)NH2.2TFA]
Human plasma [1]
  2x Clotting time TT: > 91,000 ng/mL

## Nc1ccc(CCNC(=O)[C@@H]2CCCN2C(=O)[C@@H](CC2CCCCC2)NCC(=O)O)cc1 [Example 63, HO2 CCH2 -D-Cha-Pro-4-NHCH2 CH2 C6 H4 NH2.HCl]
Human plasma [1]
  2x Clotting time TT: 680 ng/mL

## D-hPro-Pro-p-NHCH2 C6 H4 C(NH)NH2.HCl [Example 17]
Human plasma [1]
  2x Clotting time TT: 26 ng/mL
Human plasma [2]
  2x Clotting time PT: 400 ng/mL
Human plasma [3]
  2x Clotting time APTT: 370 ng/mL

## N=C(N)c1cccc(CCNC(=O)[C@@H]2CCCN2C(=O)[C@@H]2NCC[C@@H]3CCCC[C@@H]32)c1 [Example 29, 1-Piq-Pro-m-NHCH2 CH2 -C6 H4 C(=NH)NH2.2HCl]
Human plasma [1]
  2x Clotting time TT: 750 ng/mL
Human plasma [2]
  2x Clotting time PT: 15,800 ng/mL
Human plasma [3]
  2x Clotting time APTT: 9,800 ng/mL

## Nc1ccc(CNC(=O)[C@@H]2CCCN2C(=O)[C@@H](CC2CCCCC2)NCC(=O)O)cc1 [Example 62, HO2 CCH2 -D-Cha-Pro-4-NHCH2 C6 H4 NH2.HCl]
Human plasma [1]
  2x Clotting time TT: 54 ng/mL

## O=C(O)CN[C@H](CC1CCCCC1)C(=O)N1CCC[C@H]1C(=O)NCC1=CCNCC1 [Example 58, HO2 CCH2 -D-Cha-Pro-4-NHCH2 -3,4-dehydro-piperidine.HCl]
Human plasma [1]
  2x Clotting time TT: 710 ng/mL
Human plasma [2]
  2x Clotting time PT: 11,400 ng/mL
Human plasma [3]
  2x Clotting time APTT: 14,300 ng/mL

## CCS(=O)(=O)N[C@H](Cc1ccccc1)C(=O)N1CCC[C@H]1C(=O)NCCc1cccc(C(=N)N)c1 [Example 27, EtSO2 -D-Phe-Pro-m-NHCH2 CH2 -C6 H4 C(=NH)NH2.HCl]
Human plasma [1]
  2x Clotting time TT: 1,940 ng/mL
Human plasma [2]
  2x Clotting time PT: 27,000 ng/mL
Human plasma [3]
  2x Clotting time APTT: 27,800 ng/mL

## CCS(=O)(=O)N[C@H](Cc1ccccc1)C(=O)N1CCC[C@H]1C(=O)NCCc1ccc(NC(=N)N)cc1 [Example 35, EtSO2 -D-Phe-Pro-p-NHCH2 CH2 C6 H4 CNH(NH)NH2.HCl]
Human plasma [1]
  2x Clotting time TT: 4,500 ng/mL
Human plasma [2]
  2x Clotting time PT: 78,400 ng/mL
Human plasma [3]
  2x Clotting time APTT: 50,400 ng/mL

## N=C(N)c1ccc(CNC(=O)[C@@H]2C[C@@H]3CCCC[C@@H]3N2C(=O)[C@H]2CCCCN2)cc1 [Example 20, D-hPro-Ohi-p-NHCH2 C6 H4 C(NH)NH2.3HCl]
Human plasma [1]
  2x Clotting time TT: 62 ng/mL
Human plasma [2]
  2x Clotting time PT: 600 ng/mL
Human plasma [3]
  2x Clotting time APTT: 550 ng/mL

## CCS(=O)(=O)N[C@H](CC1CCCCC1)C(=O)N1CCC[C@H]1C(=O)NCCCCNC(=N)N [Example 2, EtSO2 -D-Cha-Pro-Agm.HCl]
Human plasma [1]
  2x Clotting time TT: 170 ng/mL

## O=C(O)CN[C@H](CC1CCCCC1)C(=O)N1CCC[C@H]1C(=O)NCC1CCNCC1 [Example 53, HO2 CCH2 -D-Cha-Pro-4-NHCH2 -piperidine.HCl]
Human plasma [1]
  2x Clotting time TT: 1,400 ng/mL
Human plasma [2]
  2x Clotting time PT: 34,500 ng/mL
Human plasma [3]
  2x Clotting time APTT: 33,800 ng/mL

## NC[C@H]1CC[C@H](CNC(=O)[C@@H]2CCCN2C(=O)[C@H](N)Cc2ccccc2)CC1 (relative stereo) [Example 12, D-Phe-Pro-NHCH2 -trans-4-(aminomethyl)cyclohexane.HCl]
Human plasma [1]
  2x Clotting time TT: 1,700 ng/mL

## D-Phe-Pro-p-NHCH2 C6 H4 C(NH)NH2.HCl [Example 15]
Human plasma [1]
  2x Clotting time TT: 9 ng/mL
Human plasma [3]
  2x Clotting time APTT: 89 ng/mL

## NCc1ccc(CNC(=O)[C@@H]2CCCN2C(=O)[C@H](N)Cc2ccccc2)cc1 [Example 10, D-Phe-Pro-p-NHCH2 C6 H4 CH2 NH2.HCl]
Human plasma [1]
  2x Clotting time TT: 420 ng/mL

## N=C(N)NCCCNC(=O)[C@@H]1CCCN1C(=O)[C@H](N)Cc1ccccc1 [Example 7, D-Phe-Pro-NH(CH2)3 NHC(NH)NH2.HCl]
Human plasma [1]
  2x Clotting time TT: 490 ng/mL

## CCOC(=O)N[C@H](Cc1ccccc1)C(=O)N1CCC[C@H]1C(=O)NCCCCNC(=N)N [Example 3, EtOCO-D-Phe-Pro-Agm.HCl]
Human plasma [1]
  2x Clotting time TT: 590 ng/mL

## Nc1ccc(CNC(=O)[C@@H]2CCCN2C(=O)[C@H](N)Cc2ccccc2)cc1 [Example 13, D-Phe-Pro-p-NHCH2 C6 H4 NH2.HCl]
Human plasma [1]
  2x Clotting time TT: 660 ng/mL

## NCc1cccc(CNC(=O)[C@@H]2CCCN2C(=O)[C@H](N)Cc2ccccc2)c1 [Example 11, D-Phe-Pro-m-NHCH2 C6 H4 CH2 NH2.HCl]
Human plasma [1]
  2x Clotting time TT: 8,800 ng/mL

## N=C(N)NCCCCCCNC(=O)[C@@H]1CCCN1C(=O)[C@H](N)Cc1ccccc1 [Example 5, D-Phe-Pro-NH(CH2)6 NHC(NH)NH2.HCl]
Human plasma [1]
  2x Clotting time TT: 30,000 ng/mL

## N=C(N)NC/C=C/CNC(=O)[C@@H]1CCCN1C(=O)[C@H](N)Cc1ccccc1 (relative stereo) [Example 8, D-Phe-Pro-NHCH2 -trans-CH=CHCH2 NHC(NH)NH2.HCl]
Human plasma [1]
  2x Clotting time TT: 130 ng/mL
